Laboratory results reported in US20070166547A1, “Use of a layer consisting of hydrophobic linear, or two-dimensional polycyclic aromatics as a barrier layer or an encapsulation and electric components constructed with a layer of this type and comprising organic polymers” (priority 2003, published 2007).
Marks after values point to notes of the source that are not given here.

Columns and labels:
[1] = tested on: adenosine-sensitive receptors of erythrocytes; assay: Chemiluminescence study of bonding to erythrocytes and competition with adenosine; format: binding, mice of line BALB/c; settings: 37° C. vs 4° C.; 10^−7 to 10^−5 M
Method: The interaction of compounds 2, 15, 21, 37 according to the invention with adenosine-sensitive receptors of erythrocytes of female mice of line BALB/c of an age of 8-12 months was investigated.
The dependence of the chemiluminescence intensity of the compounds according to the invention in an alkaline solution of 0.1N NaOH was determined in the presence of hydrogen peroxide being an initiator of chemiluminescence. The chemiluminescence was studied using the <<LKB>> chemiluminometer.
The erythrocytes of peripheral blood of the mice at first were washed three times by a normal physiological solution with centrifuging and then diluted in the Henks solution without glucose by 10 volumes of distilled water immediately used in the experiment.
At the first stage of the experiments the washed erythrocytes were incubated at a temperature of 37° C. or at 4° C. with solutions of the compounds according to the invention at a concentration of 10^−7 to 10^−5 M for 5-30 minutes, then washed by a normal physiological solution with repeated centrifuging in the cold. The obtained suspension of erythrocytes with the bound compounds according to the invention was placed in 0.1N solution of NaOH with addition of hydrogen peroxide at a final concentration of 10^−7 M. The chemiluminescence intensity was measured. A suspension of erythrocytes without compounds according to the invention was used as a control medium.
At the second stage of the experiments the washed erythrocytes were incubated at a temperature of 37° C. with solutions of the compounds according to the invention at a concentration of 10^−11 to 10^−8M during
5-30 minutes, then washed twice with a normal physiological solution by centrifuging in the cold, the obtained suspension was mixed with an adenosine solution at a concentration of 10^−6 to 10^−4 and incubated for 15 minutes, then washed twice with a normal physiological solution with centrifuging in the cold. The obtained suspension of erythrocytes with the compounds according to the invention was placed in 0.1N solution of NaOH with addition of hydrogen peroxide in the final concentration of 10^−7 M. The chemiluminescence intensity was measured.

[2] = tested on: plasma hemostasis; assay: Prothrombin time after intravenous administration; format: in vivo, rabbit; settings: for effect on the prothrombin time index (overall): doses of 15.0, 30.0, 60.0 mg/kg
Method: (§1) The investigations were performed on 72 rabbits of the “Chinchilla” breed with a mass of 2.5±0.3 kg, who were administered which solutions of compounds 2, 15, 21, 37 in doses of 15, 30 and 60 mg/kg intravenously. The experiments included the thrombin-test (series No. 7300) and the coagulability-test (series No. 5000) purchased from the scientific-and-production association (SPA) “Renam”, thromboplastin (series No. 240600) and calcium chloride purchased from the SPA “MedioLab”
(§2) The static parameters of the blood and plasma coagulation (partial activated thromboplastin time, thrombin time, maximum coagulation activity (test for auto coagulation) were determined using the Behnk Electronic coagulometer (Germany). The operating principle of this instrument is based on the fact that the formed blood clot breaks the contacts of the pulse counter in the flask-pin circuit, said pin permanently oscillating in a vertical plane. The moment of formation of the clot is registered by stopping the stop watch hand.
(§3) The measurements were effected at a constant temperature of 37° C. maintained by a temperature control unit.
The method of its determination is based on estimation of the coagulation of citrate or oxalic blood plasma, when it is mixed with thromboplastin and a calcium chloride solution. Since under these conditions the time of formation of the clot depends on the content of II, VII, IX and X factors in the investigated plasma sample, now the test is called “thromboplastin time by Quick” or “activity thromboplastin complex”.
Compounds 2, 15, 21, 37 according to the invention at a concentration of 15, 30 and 60 mg/kg were administered to the above experimental animals intravenously and their blood was taken off after 15, 30, 60 and 120 minutes after the administration.
Citrate blood containing 1 part of citrate per 9 parts of native blood was centrifuged at 3000 rev/min for 10 minutes to obtain plasma deprived of thrombocytes.
Added into a test tube in a water bath were 0.1 ml of plasma and 0.1 ml of a thromboplastin solution. After 60 seconds, 0.1 ml of 0.277% solution of calcium chloride was added and the time of reaction T1 in seconds was registered.

[3] = tested on: plasma hemostasis; assay: Thrombin time after intravenous administration; format: in vivo, rabbit
Method: as §1, §2, §3
The “thrombin time” characterizes the rate of transformation of fibrinogen into fibrin. It was determined by measuring the coagulation time of plasma deprived of thrombocytes under the effect of thrombin standardized by the control plasma.
0.2 ml of a thrombin solution was added to 0.2 ml of the test blood plasma of experimental animals, from whom the blood was taken 15, 30, 60 and 120 minutes after the intravenous administration of compounds 2, 15, 21, 37 according to the invention in doses of 15, 30, 60 mg/kg incubated for 1 minute at a temperature of 37° C. and the time of formation of clot T2 in seconds in a coagulometer of the Behnk Electronic Company (Germany).

[4] = tested on: thymus; assay: Morphine abstinence model: thymus condition; format: in vivo, rats; settings: morphinized rats then compound
Method: The effect of the compounds according to the invention on the condition of the thymus of the rats was also investigated: a control group, an experimental group of morphinized animals and an experimental group of animals were first morphinized and then injected with the compounds according to the invention. The experiment was carried out similarly to that described above.

SMILES | bond with the erythrocytes: dependence on incubation temperature [1] | T, s After 120 minutes (prothrombin time) ([2]; dose 15.0 mg/kg intravenously) [s] | T, s after 15 minutes (prothrombin time) ([2]; dose 15.0 mg/kg intravenously) [s] | T, s after 30 minutes (prothrombin time) ([2]; dose 15.0 mg/kg intravenously) [s] | T, s after 60 minutes (prothrombin time) ([2]; dose 15.0 mg/kg intravenously) [s] | T, s After 120 minutes (prothrombin time) ([2]; dose 30.0 mg/kg intravenously) [s] | T, s after 15 minutes (prothrombin time) ([2]; dose 30.0 mg/kg intravenously) [s] | T, s after 30 minutes (prothrombin time) ([2]; dose 30.0 mg/kg intravenously) [s] | T, s after 60 minutes (prothrombin time) ([2]; dose 30.0 mg/kg intravenously) [s] | T, s After 120 minutes (prothrombin time) ([2]; dose 60.0 mg/kg intravenously) [s] | T, s after 15 minutes (prothrombin time) ([2]; dose 60.0 mg/kg intravenously) [s] | T, s after 30 minutes (prothrombin time) ([2]; dose 60.0 mg/kg intravenously) [s] | T, s after 60 minutes (prothrombin time) ([2]; dose 60.0 mg/kg intravenously) [s] | effect on the prothrombin time index (overall) [2] | T2, s After 120 minutes (thrombin time) ([3]; dose 15.0 mg/kg intravenously) | T2, s after 15 minutes (thrombin time) ([3]; dose 15.0 mg/kg intravenously) | T2, s after 30 minutes (thrombin time) ([3]; dose 15.0 mg/kg intravenously) | T2, s after 60 minutes (thrombin time) ([3]; dose 15.0 mg/kg intravenously) | T2, s After 120 minutes (thrombin time) ([3]; dose 30.0 mg/kg intravenously) | T2, s after 15 minutes (thrombin time) ([3]; dose 30.0 mg/kg intravenously) | also measured
Nc1ccnc2c(=O)n([C@@H]3O[C@H](CO)[C@@H](O)[C@H]3O)[nH]c(=O)c12 [Compound 2, 4-amino-7-(β-D-ribofuranosile)pyrido[2,3-d]-6H-pyridazine-5,8-dione] | does not depend on the temperature | 11.7 ± 0.1 | 11.7 ± 0.2 | 11.5 ± 0.2 | 11.4 ± 0.2 | 11.2 ± 0.2 | 11.1 ± 0.2 | 11.0 ± 0.1 | 11.3 ± 0.1 | 11.9 ± 0.1 | 12.0 ± 0.1 | 11.9 ± 0.2 | 12.1 ± 0.2 | have no effect on the prothrombin time index | 15.3* s | 16.2* s | 17.0* s | 16.0* s | 15.3* s | 17.8* s | T2, s after 30 minutes (thrombin time) ([3]; dose 30.0 mg/kg intravenously): 18.4* s; T2, s after 60 minutes (thrombin time) ([3]; dose 30.0 mg/kg intravenously): 19.2* s; T2, s After 120 minutes (thrombin time) ([3]; dose 60.0 mg/kg intravenously): 15.3* s; T2, s after 15 minutes (thrombin time) ([3]; dose 60.0 mg/kg intravenously): 16.0* s; T2, s after 30 minutes (thrombin time) ([3]; dose 60.0 mg/kg intravenously): 16.9* s; T2, s after 60 minutes (thrombin time) ([3]; dose 60.0 mg/kg intravenously): 15.9* s
Nc1cccc2c(=O)[nH][nH]c(=O)c12.[Na] [Compound 15, sodium salt of 5-amino-benzo[d]-3H-pyridazine-1,4-dione] | does not depend on the temperature | 11.5 ± 0.2 | 11.5 ± 0.2 | 11.7 ± 0.2 | 11.2 ± 0.2 | 11.3 ± 0.2 | 11.0 ± 0.2 | 11.2 ± 0.2 | 11.4 ± 0.2 | 12.0 ± 0.1 | 12.0 ± 0.1 | 12.0 ± 0.1 | 12.0 ± 0.2 | have no effect on the prothrombin time index | 15.5* s | 17.0* s | 18.5* s | 16.5* s | 15.0* s | 19.7* s | T2, s after 30 minutes (thrombin time) ([3]; dose 30.0 mg/kg intravenously): 20.5* s; T2, s after 60 minutes (thrombin time) ([3]; dose 30.0 mg/kg intravenously): 21.3* s; T2, s After 120 minutes (thrombin time) ([3]; dose 60.0 mg/kg intravenously): 14.7* s; T2, s after 15 minutes (thrombin time) ([3]; dose 60.0 mg/kg intravenously): 16.8* s; T2, s after 30 minutes (thrombin time) ([3]; dose 60.0 mg/kg intravenously): 18.0* s; T2, s after 60 minutes (thrombin time) ([3]; dose 60.0 mg/kg intravenously): 16.5* s; Nitrites, thymus Supernatant, Administration of morphine and compound [4]: 0.383 ± 0.02 nmol/mg of protein; Thymus mass, Administration of morphine and compound [4]: 214 ± 12 mg
Nc1cnc2c(=O)n([C@@H]3O[C@H](CO)[C@@H](O)[C@H]3O)[nH]c(=O)c2n1.[Na] [Compound 21, sodium salt of 3-amino-7-(β-D-ribofuranosile)pyrazine[2,3-d]-6H-pyridazine-5,8-dione] | does not depend on the temperature | 11.5 ± 0.2 | 11.4 ± 0.2 | 11.5 ± 0.1 | 11.3 ± 0.1 | 11.2 ± 0.2 | 11.2 ± 0.1 | 11.2 ± 0.1 | 11.3 ± 0.2 | 12.0 ± 0.2 | 12.0 ± 0.2 | 11.8 ± 0.1 | 12.1 ± 0.1 | have no effect on the prothrombin time index | 15.7* s | 16.4* s | 17.7* s | 16.1* s | 15.6* s | 17.9* s | T2, s after 30 minutes (thrombin time) ([3]; dose 30.0 mg/kg intravenously): 18.8* s; T2, s after 60 minutes (thrombin time) ([3]; dose 30.0 mg/kg intravenously): 19.0* s; T2, s After 120 minutes (thrombin time) ([3]; dose 60.0 mg/kg intravenously): 15.7* s; T2, s after 15 minutes (thrombin time) ([3]; dose 60.0 mg/kg intravenously): 16.2* s; T2, s after 30 minutes (thrombin time) ([3]; dose 60.0 mg/kg intravenously): 17.7* s; T2, s after 60 minutes (thrombin time) ([3]; dose 60.0 mg/kg intravenously): 16.3* s
O=c1[nH][nH]c(=O)c2nccnc12.[Li] [Compound 25, lithium salt of pyrazine[2,3-d]-6H-pyridazine-5,8-dione] | – | – | – | – | – | – | – | – | – | – | – | – | – | – | – | – | – | – | – | – | Nitrites, thymus Supernatant, Administration of morphine and compound [4]: 0.396 ± 0.02 nmol/mg of protein; Thymus mass, Administration of morphine and compound [4]: 218 ± 17 mg
O=c1[nH][nH]c(=O)c2c(Br)ncnc12.[K] [Compound 37, potassium salt of 4-bromine-pyrimido[4,5-D]-6H-pyridazine-5,8-dione] | does not depend on the temperature | 11.8 ± 0.1 | 11.6 ± 0.2 | 11.6 ± 0.1 | 11.5 ± 0.2 | 11.1 ± 0.1 | 11.3 ± 0.1 | 11.2 ± 0.2 | 11.4 ± 0.1 | 12.0 ± 0.1 | 12.1 ± 0.1 | 12.0 ± 0.1 | 12.1 ± 0.2 | have no effect on the prothrombin time index | 15.6* s | 16.9* s | 18.2* s | 16.3* s | 15.2* s | 19.5* s | T2, s after 30 minutes (thrombin time) ([3]; dose 30.0 mg/kg intravenously): 20.3* s; T2, s after 60 minutes (thrombin time) ([3]; dose 30.0 mg/kg intravenously): 21.0* s; T2, s After 120 minutes (thrombin time) ([3]; dose 60.0 mg/kg intravenously): 15.0* s; T2, s after 15 minutes (thrombin time) ([3]; dose 60.0 mg/kg intravenously): 16.6* s; T2, s after 30 minutes (thrombin time) ([3]; dose 60.0 mg/kg intravenously): 17.8* s; T2, s after 60 minutes (thrombin time) ([3]; dose 60.0 mg/kg intravenously): 16.2* s; Nitrites, thymus Supernatant, Administration of morphine and compound [4]: 0.387 ± 0.01 nmol/mg of protein; Thymus mass, Administration of morphine and compound [4]: 228 ± 15 mg
